Converted amounts (≈) assume the structure as drawn.
Each compound was assayed on Staphylococcus aureus (assay: Antibacterial activity against clinical isolate of penicillin-resistant Staphylococcus aureus after 24 hrs by broth microdilution based CLSI method). Conditions: not given.
Format: functional

SMILES	MIC
NC(=O)c1c(F)ccc(OCc2cc(-c3cccc(Cl)c3)on2)c1F	> 64 µg/mL
NC(=O)c1c(F)ccc(OCc2cc(-c3ccc(Cl)cc3Cl)no2)c1F	> 64 µg/mL
Cc1cccc(-c2cc(COc3ccc(F)c(C(N)=O)c3F)no2)c1	> 64 µg/mL
NC(=O)c1c(F)ccc(OCc2cc(-c3ccccc3Cl)no2)c1F	> 64 µg/mL
NC(=O)c1c(F)ccc(OCc2cc(-c3ccc(-c4cccc5ccccc45)cc3)no2)c1F	> 64 µg/mL
COc1cccc(-c2cc(COc3ccc(F)c(C(N)=O)c3F)no2)c1	> 64 µg/mL
CCCCc1ccc(-c2cc(COc3ccc(F)c(C(N)=O)c3F)no2)cc1	> 64 µg/mL
NC(=O)c1c(F)ccc(OCc2cc(-c3cccs3)no2)c1F	> 64 µg/mL
NC(=O)c1c(F)ccc(OCc2cc(-c3ccc(-c4ccccn4)cc3)no2)c1F	> 64 µg/mL
CCOc1ccc(-c2cc(COc3ccc(F)c(C(N)=O)c3F)no2)cc1	> 64 µg/mL
COc1ccc(-c2cc(COc3ccc(F)c(C(N)=O)c3F)on2)cc1	> 64 µg/mL
NC(=O)c1c(F)ccc(OCc2cc(-c3ccco3)no2)c1F	> 64 µg/mL
COc1ccc(-c2cc(COc3ccc(F)c(C(N)=O)c3F)on2)cc1OC	> 64 µg/mL
COc1ccccc1-c1cc(COc2ccc(F)c(C(N)=O)c2F)on1	> 64 µg/mL
NC(=O)c1c(F)ccc(OCc2cc(/C=C/c3ccccc3)no2)c1F	> 64 µg/mL

What follows are compounds tested on Staphylococcus aureus (assay: Antibacterial activity against Staphylococcus aureus ATCC 25923 after 24 hrs by broth microdilution based CLSI method). Conditions: ATCC 25923, 24 h.
Format: functional

SMILES	MIC
NC(=O)c1c(F)ccc(OCc2cc(-c3cccc(Cl)c3)on2)c1F	> 64 µg/mL
NC(=O)c1c(F)ccc(OCc2cc(-c3ccc(Cl)cc3Cl)no2)c1F	8 µg/mL (≈ 20 µM)
Cc1cccc(-c2cc(COc3ccc(F)c(C(N)=O)c3F)no2)c1	> 64 µg/mL
NC(=O)c1c(F)ccc(OCc2cc(-c3ccccc3Cl)no2)c1F	> 64 µg/mL
NC(=O)c1c(F)ccc(OCc2cc(-c3ccc(-c4cccc5ccccc45)cc3)no2)c1F	> 64 µg/mL
COc1cccc(-c2cc(COc3ccc(F)c(C(N)=O)c3F)no2)c1	> 64 µg/mL
CCCCc1ccc(-c2cc(COc3ccc(F)c(C(N)=O)c3F)no2)cc1	> 64 µg/mL
NC(=O)c1c(F)ccc(OCc2cc(-c3cccs3)no2)c1F	> 64 µg/mL
NC(=O)c1c(F)ccc(OCc2cc(-c3ccc(-c4ccccn4)cc3)no2)c1F	> 64 µg/mL
CCOc1ccc(-c2cc(COc3ccc(F)c(C(N)=O)c3F)no2)cc1	> 64 µg/mL
COc1ccc(-c2cc(COc3ccc(F)c(C(N)=O)c3F)on2)cc1	64 µg/mL (≈ 178 µM)
NC(=O)c1c(F)ccc(OCc2cc(-c3ccco3)no2)c1F	> 64 µg/mL
COc1ccc(-c2cc(COc3ccc(F)c(C(N)=O)c3F)on2)cc1OC	> 64 µg/mL
COc1ccccc1-c1cc(COc2ccc(F)c(C(N)=O)c2F)on1	> 64 µg/mL
NC(=O)c1c(F)ccc(OCc2cc(/C=C/c3ccccc3)no2)c1F	> 64 µg/mL

The compounds below were run on Staphylococcus aureus (assay: Antibacterial activity against methicillin-resistant Staphylococcus aureus ATCC 43300 after 24 hrs by broth microdilution based CLSI method). Conditions: ATCC 43300, 24 h.
Format: functional

SMILES	MIC
NC(=O)c1c(F)ccc(OCc2cc(-c3cccc(Cl)c3)on2)c1F	> 64 µg/mL
NC(=O)c1c(F)ccc(OCc2cc(-c3ccc(Cl)cc3Cl)no2)c1F	4 µg/mL (≈ 10 µM)
Cc1cccc(-c2cc(COc3ccc(F)c(C(N)=O)c3F)no2)c1	> 64 µg/mL
NC(=O)c1c(F)ccc(OCc2cc(-c3ccccc3Cl)no2)c1F	> 64 µg/mL
NC(=O)c1c(F)ccc(OCc2cc(-c3ccc(-c4cccc5ccccc45)cc3)no2)c1F	> 64 µg/mL
COc1cccc(-c2cc(COc3ccc(F)c(C(N)=O)c3F)no2)c1	> 64 µg/mL
CCCCc1ccc(-c2cc(COc3ccc(F)c(C(N)=O)c3F)no2)cc1	> 64 µg/mL
NC(=O)c1c(F)ccc(OCc2cc(-c3cccs3)no2)c1F	> 64 µg/mL
NC(=O)c1c(F)ccc(OCc2cc(-c3ccc(-c4ccccn4)cc3)no2)c1F	> 64 µg/mL
CCOc1ccc(-c2cc(COc3ccc(F)c(C(N)=O)c3F)no2)cc1	> 64 µg/mL
COc1ccc(-c2cc(COc3ccc(F)c(C(N)=O)c3F)on2)cc1	4 µg/mL (≈ 11.1 µM)
NC(=O)c1c(F)ccc(OCc2cc(-c3ccco3)no2)c1F	> 64 µg/mL
COc1ccc(-c2cc(COc3ccc(F)c(C(N)=O)c3F)on2)cc1OC	> 64 µg/mL
COc1ccccc1-c1cc(COc2ccc(F)c(C(N)=O)c2F)on1	> 64 µg/mL
NC(=O)c1c(F)ccc(OCc2cc(/C=C/c3ccccc3)no2)c1F	> 64 µg/mL

Each compound was assayed on Bacillus subtilis (assay: Antibacterial activity against Bacillus subtilis ATCC 9372 after 24 hrs by broth microdilution based CLSI method). Conditions: ATCC 9372, 24 h.
Format: functional

SMILES	MIC
NC(=O)c1c(F)ccc(OCc2cc(-c3cccc(Cl)c3)on2)c1F	8 µg/mL (≈ 21.9 µM)
NC(=O)c1c(F)ccc(OCc2cc(-c3ccc(Cl)cc3Cl)no2)c1F	0.5 µg/mL (≈ 1.25 µM)
Cc1cccc(-c2cc(COc3ccc(F)c(C(N)=O)c3F)no2)c1	32 µg/mL (≈ 92.9 µM)
NC(=O)c1c(F)ccc(OCc2cc(-c3ccccc3Cl)no2)c1F	8 µg/mL (≈ 21.9 µM)
NC(=O)c1c(F)ccc(OCc2cc(-c3ccc(-c4cccc5ccccc45)cc3)no2)c1F	> 64 µg/mL
COc1cccc(-c2cc(COc3ccc(F)c(C(N)=O)c3F)no2)c1	64 µg/mL (≈ 178 µM)
CCCCc1ccc(-c2cc(COc3ccc(F)c(C(N)=O)c3F)no2)cc1	0.06 µg/mL (≈ 0.155 µM)
NC(=O)c1c(F)ccc(OCc2cc(-c3cccs3)no2)c1F	32 µg/mL (≈ 95.1 µM)
NC(=O)c1c(F)ccc(OCc2cc(-c3ccc(-c4ccccn4)cc3)no2)c1F	64 µg/mL (≈ 157 µM)
CCOc1ccc(-c2cc(COc3ccc(F)c(C(N)=O)c3F)no2)cc1	> 64 µg/mL
COc1ccc(-c2cc(COc3ccc(F)c(C(N)=O)c3F)on2)cc1	3 µg/mL (≈ 8.33 µM)
NC(=O)c1c(F)ccc(OCc2cc(-c3ccco3)no2)c1F	32 µg/mL (≈ 99.9 µM)
COc1ccc(-c2cc(COc3ccc(F)c(C(N)=O)c3F)on2)cc1OC	> 64 µg/mL
COc1ccccc1-c1cc(COc2ccc(F)c(C(N)=O)c2F)on1	> 64 µg/mL
NC(=O)c1c(F)ccc(OCc2cc(/C=C/c3ccccc3)no2)c1F	8 µg/mL (≈ 22.5 µM)

The compounds below were run on Escherichia coli (assay: Antibacterial activity against Escherichia coli ATCC 25922 after 24 hrs by broth microdilution based CLSI method). Conditions: ATCC 25922, 24 h.
Format: functional

SMILES	MIC
NC(=O)c1c(F)ccc(OCc2cc(-c3cccc(Cl)c3)on2)c1F	> 64 µg/mL
NC(=O)c1c(F)ccc(OCc2cc(-c3ccc(Cl)cc3Cl)no2)c1F	> 64 µg/mL
Cc1cccc(-c2cc(COc3ccc(F)c(C(N)=O)c3F)no2)c1	> 64 µg/mL
NC(=O)c1c(F)ccc(OCc2cc(-c3ccccc3Cl)no2)c1F	> 64 µg/mL
NC(=O)c1c(F)ccc(OCc2cc(-c3ccc(-c4cccc5ccccc45)cc3)no2)c1F	> 64 µg/mL
COc1cccc(-c2cc(COc3ccc(F)c(C(N)=O)c3F)no2)c1	> 64 µg/mL
CCCCc1ccc(-c2cc(COc3ccc(F)c(C(N)=O)c3F)no2)cc1	> 64 µg/mL
NC(=O)c1c(F)ccc(OCc2cc(-c3cccs3)no2)c1F	> 64 µg/mL
NC(=O)c1c(F)ccc(OCc2cc(-c3ccc(-c4ccccn4)cc3)no2)c1F	> 64 µg/mL
CCOc1ccc(-c2cc(COc3ccc(F)c(C(N)=O)c3F)no2)cc1	> 64 µg/mL
COc1ccc(-c2cc(COc3ccc(F)c(C(N)=O)c3F)on2)cc1	> 64 µg/mL
NC(=O)c1c(F)ccc(OCc2cc(-c3ccco3)no2)c1F	> 64 µg/mL
COc1ccc(-c2cc(COc3ccc(F)c(C(N)=O)c3F)on2)cc1OC	> 64 µg/mL
COc1ccccc1-c1cc(COc2ccc(F)c(C(N)=O)c2F)on1	> 64 µg/mL
NC(=O)c1c(F)ccc(OCc2cc(/C=C/c3ccccc3)no2)c1F	> 64 µg/mL

What follows are compounds tested on Pseudomonas aeruginosa (assay: Antibacterial activity against Pseudomonas aeruginosa ATCC 27853 after 24 hrs by broth microdilution based CLSI method). Conditions: ATCC 27853, 24 h.
Format: functional

SMILES	MIC
NC(=O)c1c(F)ccc(OCc2cc(-c3cccc(Cl)c3)on2)c1F	> 64 µg/mL
NC(=O)c1c(F)ccc(OCc2cc(-c3ccc(Cl)cc3Cl)no2)c1F	> 64 µg/mL
Cc1cccc(-c2cc(COc3ccc(F)c(C(N)=O)c3F)no2)c1	> 64 µg/mL
NC(=O)c1c(F)ccc(OCc2cc(-c3ccccc3Cl)no2)c1F	> 64 µg/mL
NC(=O)c1c(F)ccc(OCc2cc(-c3ccc(-c4cccc5ccccc45)cc3)no2)c1F	> 64 µg/mL
COc1cccc(-c2cc(COc3ccc(F)c(C(N)=O)c3F)no2)c1	> 64 µg/mL
CCCCc1ccc(-c2cc(COc3ccc(F)c(C(N)=O)c3F)no2)cc1	> 64 µg/mL
NC(=O)c1c(F)ccc(OCc2cc(-c3cccs3)no2)c1F	> 64 µg/mL
NC(=O)c1c(F)ccc(OCc2cc(-c3ccc(-c4ccccn4)cc3)no2)c1F	> 64 µg/mL
CCOc1ccc(-c2cc(COc3ccc(F)c(C(N)=O)c3F)no2)cc1	> 64 µg/mL
COc1ccc(-c2cc(COc3ccc(F)c(C(N)=O)c3F)on2)cc1	> 64 µg/mL
NC(=O)c1c(F)ccc(OCc2cc(-c3ccco3)no2)c1F	> 64 µg/mL
COc1ccc(-c2cc(COc3ccc(F)c(C(N)=O)c3F)on2)cc1OC	> 64 µg/mL
COc1ccccc1-c1cc(COc2ccc(F)c(C(N)=O)c2F)on1	> 64 µg/mL
NC(=O)c1c(F)ccc(OCc2cc(/C=C/c3ccccc3)no2)c1F	> 64 µg/mL

These compounds were tested on Bacillus pumilus (assay: Antibacterial activity against Bacillus pumilus CMCC63202 after 24 hrs by broth microdilution based CLSI method). Conditions: CMCC63202, 24 h.
Format: functional

SMILES	MIC
NC(=O)c1c(F)ccc(OCc2cc(-c3cccc(Cl)c3)on2)c1F	> 64 µg/mL
NC(=O)c1c(F)ccc(OCc2cc(-c3ccc(Cl)cc3Cl)no2)c1F	0.5 µg/mL (≈ 1.25 µM)
Cc1cccc(-c2cc(COc3ccc(F)c(C(N)=O)c3F)no2)c1	> 64 µg/mL
NC(=O)c1c(F)ccc(OCc2cc(-c3ccccc3Cl)no2)c1F	16 µg/mL (≈ 43.9 µM)
NC(=O)c1c(F)ccc(OCc2cc(-c3ccc(-c4cccc5ccccc45)cc3)no2)c1F	> 64 µg/mL
COc1cccc(-c2cc(COc3ccc(F)c(C(N)=O)c3F)no2)c1	> 64 µg/mL
CCCCc1ccc(-c2cc(COc3ccc(F)c(C(N)=O)c3F)no2)cc1	> 64 µg/mL
NC(=O)c1c(F)ccc(OCc2cc(-c3cccs3)no2)c1F	> 64 µg/mL
NC(=O)c1c(F)ccc(OCc2cc(-c3ccc(-c4ccccn4)cc3)no2)c1F	> 64 µg/mL
CCOc1ccc(-c2cc(COc3ccc(F)c(C(N)=O)c3F)no2)cc1	> 64 µg/mL
COc1ccc(-c2cc(COc3ccc(F)c(C(N)=O)c3F)on2)cc1	> 64 µg/mL
NC(=O)c1c(F)ccc(OCc2cc(-c3ccco3)no2)c1F	> 64 µg/mL
COc1ccc(-c2cc(COc3ccc(F)c(C(N)=O)c3F)on2)cc1OC	> 64 µg/mL
COc1ccccc1-c1cc(COc2ccc(F)c(C(N)=O)c2F)on1	> 64 µg/mL
NC(=O)c1c(F)ccc(OCc2cc(/C=C/c3ccccc3)no2)c1F	> 64 µg/mL

Source: ChEMBL document CHEMBL4257566, “Design, synthesis and structure-based optimization of novel isoxazole-containing benzamide derivatives as FtsZ modulators” (Eur J Med Chem, 2018)
